Laboratory results taken from patent US20210317140A1, “Heterocyclic Compounds and Methods of Use” (MEDIVATION TECHNOLOGIES, INC, priority 2013, published 2021).

Key:
[1] = biological target: T1, BTK (Homo sapiens, UniProt Q06187); test: BTK kinase assay (HotSpot, 33P ATP); type: biochemical; conditions: for IC50: 10 dose IC50, 10 μM ATP; for BTK @ 0.01 μM (% Inh): 0.01 μM compound; for BTK @ 0.01 μM (% Inh) / BTK @ 0.1 μM (% Inh) / BTK @ 1 μM (% Inh): 10 μM ATP; for BTK @ 0.1 μM (% Inh): 0.1 μM compound; for BTK @ 1 μM (% Inh): 1 μM compound
T1 construct: purchased Reaction Biology Corporation
Outline: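 In 20 mM Hepes (pH 7.5) with 10 mM MgCl2, 1 mM EGTA, 0.1 mM Na3VO4, 2 mM DTT, 0.02% Brij35, 0.02 mg/mL BSA and 1% DMSO, kinase and substrate were exposed to ten compound doses for 15–20 min.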

[2] = biological target: T2, PI3Kδ (Homo sapiens, UniProt O00329); test: PI3Kδ kinase assay (HTRF, PIP3 detection); type: biochemical; conditions: for IC50: 10 dose IC50, 10 μM ATP; for PI3Kδ @ 0.01 μM (% Inh): 0.01 μM compound; for PI3Kδ @ 0.01 μM (% Inh) / PI3Kδ @ 0.1 μM (% Inh) / PI3Kδ @ 1 μM (% Inh): 10 μM ATP; for PI3Kδ @ 0.1 μM (% Inh): 0.1 μM compound; for PI3Kδ @ 1 μM (% Inh): 1 μM compound
T2 construct: purchased Reaction Biology Corporation
Outline: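 PIP3 formation read by loss of energy transfer as it displaces biotin-PIP3 from a Eu anti-GST/GST-PH/streptavidin-APC complex, calibrated against PIP3 standards.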

[3] = tested on: CD69+B220+ cells; test: B cell activation assay (IgD-stimulated splenocytes, CD69+B220+ cells by FACS); type: cell-based; conditions: IgD 3 μg/mL, 4 h; for CD69 @ 100 nM (% Inh): 100 nM compound, mouse splenocytes
Experimental: 1 Female mouse approximately 2 months old was euthanized with CO2 and the spleen removed. The tissue was homogenized with a polished glass microscope slide. The cells were collected in 5 mL complete medium (RPMI+10% FBS+pen/strep), placed in a 15 mL falcon tube and centrifuged at 500×g for 5 min. The supernatant was discarded and the pellet was resuspended in 3 mL of ACK lysis buffer (NH4Cl 0.17M, KHCO3 10 mM, EDTA-Na2 0.1 mM, pH 7.2), incubated at 37° C. for 5 min. 2 mL complete medium was added and the mixture centrifuged at 500×g for 5 min. The supernatant was discarded and the pellet resuspended in 1 mL complete medium. The mixture was passed through a […] cell strainer and collect in 50 mL falcon tube. Enough medium was added to have a total of 10 mL. The cells were counted and seeded in 24 or 48-well plate in 1 mL complete medium at 10^6 cells/mL. The plate was placed in a 37° C. incubator for 15 min. The cells were treated for 30 min at 37° C. with 100 nM test compound dissolved in 100% DMSO. 3 μL IgD (Accurate chemical and scientific corp.) was added at a final concentration of 3 μg/mL and the mixture incubated at 37° C. for 4 h. The cells were collected in 1.5 mL eppendorf tubes, centrifuged at 500×g for 5 min and then resuspended in 100 μL of PBS+2% FBS. The following antibodies were added: α-B220 PE (pharmingen #553090), α-CD69 APC (pharmingen #60689), live/dead fixable aqua dead cell stain kit (life technologies #L34957) all at 1:300, and the mixture incubated for 15 min at 4° C. in the dark. To this was added 900 μL of PBS+2% FBS and the mixture centrifuged at 500×g for 5 min. The supernatant was removed and the pellet resuspended in 300 μL of PBS+2% FBS and mixed well. The mixture was transferred to a cytometer tube. The samples were run in the FACS Canto II cytometer and quantified by the number of CD69+B220+ cells as a percentage of the total number of B220+ alive cells.

T1 sequence (Q06187 whole entry): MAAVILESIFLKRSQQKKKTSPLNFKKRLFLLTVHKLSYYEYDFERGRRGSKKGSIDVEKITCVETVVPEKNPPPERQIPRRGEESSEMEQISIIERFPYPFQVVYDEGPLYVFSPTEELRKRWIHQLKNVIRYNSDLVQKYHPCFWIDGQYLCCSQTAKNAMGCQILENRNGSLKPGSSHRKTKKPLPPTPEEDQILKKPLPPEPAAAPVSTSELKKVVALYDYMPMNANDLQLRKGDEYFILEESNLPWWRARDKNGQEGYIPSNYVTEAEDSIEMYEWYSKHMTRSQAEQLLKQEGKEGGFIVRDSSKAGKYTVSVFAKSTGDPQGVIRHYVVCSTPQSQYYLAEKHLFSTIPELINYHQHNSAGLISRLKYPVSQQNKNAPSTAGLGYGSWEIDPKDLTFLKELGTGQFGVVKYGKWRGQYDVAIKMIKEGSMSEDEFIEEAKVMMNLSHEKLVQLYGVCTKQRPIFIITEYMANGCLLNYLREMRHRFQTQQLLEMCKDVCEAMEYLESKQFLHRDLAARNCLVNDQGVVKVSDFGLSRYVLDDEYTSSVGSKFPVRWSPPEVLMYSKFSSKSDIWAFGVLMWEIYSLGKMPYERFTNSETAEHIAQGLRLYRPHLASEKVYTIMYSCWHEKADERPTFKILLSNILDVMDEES
T2 sequence (O00329 whole entry): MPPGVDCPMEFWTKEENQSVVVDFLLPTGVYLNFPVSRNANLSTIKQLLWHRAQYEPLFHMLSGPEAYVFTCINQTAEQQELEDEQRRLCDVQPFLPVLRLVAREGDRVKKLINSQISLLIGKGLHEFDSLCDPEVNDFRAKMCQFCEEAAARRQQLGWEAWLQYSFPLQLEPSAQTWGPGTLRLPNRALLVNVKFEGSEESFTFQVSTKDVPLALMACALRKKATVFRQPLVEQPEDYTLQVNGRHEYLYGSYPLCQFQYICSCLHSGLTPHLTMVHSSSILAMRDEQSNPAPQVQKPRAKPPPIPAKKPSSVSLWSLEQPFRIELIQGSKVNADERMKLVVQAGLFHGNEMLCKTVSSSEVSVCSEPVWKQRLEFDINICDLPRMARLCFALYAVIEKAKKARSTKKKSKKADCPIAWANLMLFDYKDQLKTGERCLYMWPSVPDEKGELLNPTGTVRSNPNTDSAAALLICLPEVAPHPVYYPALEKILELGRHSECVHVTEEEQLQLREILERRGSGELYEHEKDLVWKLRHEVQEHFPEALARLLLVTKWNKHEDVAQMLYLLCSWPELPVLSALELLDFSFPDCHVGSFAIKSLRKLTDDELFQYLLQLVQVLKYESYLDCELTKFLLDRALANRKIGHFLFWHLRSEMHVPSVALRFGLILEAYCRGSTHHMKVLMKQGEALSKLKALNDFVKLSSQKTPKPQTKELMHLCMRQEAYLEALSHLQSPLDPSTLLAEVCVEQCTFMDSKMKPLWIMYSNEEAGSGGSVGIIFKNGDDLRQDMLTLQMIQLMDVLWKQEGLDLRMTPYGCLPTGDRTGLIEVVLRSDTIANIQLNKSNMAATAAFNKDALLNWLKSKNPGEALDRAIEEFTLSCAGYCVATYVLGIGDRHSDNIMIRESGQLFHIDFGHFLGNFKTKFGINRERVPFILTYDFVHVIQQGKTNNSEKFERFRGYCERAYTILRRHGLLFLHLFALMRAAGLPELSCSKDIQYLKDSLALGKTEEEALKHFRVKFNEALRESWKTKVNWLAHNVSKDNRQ
T2 sequence (P27986 whole entry partner): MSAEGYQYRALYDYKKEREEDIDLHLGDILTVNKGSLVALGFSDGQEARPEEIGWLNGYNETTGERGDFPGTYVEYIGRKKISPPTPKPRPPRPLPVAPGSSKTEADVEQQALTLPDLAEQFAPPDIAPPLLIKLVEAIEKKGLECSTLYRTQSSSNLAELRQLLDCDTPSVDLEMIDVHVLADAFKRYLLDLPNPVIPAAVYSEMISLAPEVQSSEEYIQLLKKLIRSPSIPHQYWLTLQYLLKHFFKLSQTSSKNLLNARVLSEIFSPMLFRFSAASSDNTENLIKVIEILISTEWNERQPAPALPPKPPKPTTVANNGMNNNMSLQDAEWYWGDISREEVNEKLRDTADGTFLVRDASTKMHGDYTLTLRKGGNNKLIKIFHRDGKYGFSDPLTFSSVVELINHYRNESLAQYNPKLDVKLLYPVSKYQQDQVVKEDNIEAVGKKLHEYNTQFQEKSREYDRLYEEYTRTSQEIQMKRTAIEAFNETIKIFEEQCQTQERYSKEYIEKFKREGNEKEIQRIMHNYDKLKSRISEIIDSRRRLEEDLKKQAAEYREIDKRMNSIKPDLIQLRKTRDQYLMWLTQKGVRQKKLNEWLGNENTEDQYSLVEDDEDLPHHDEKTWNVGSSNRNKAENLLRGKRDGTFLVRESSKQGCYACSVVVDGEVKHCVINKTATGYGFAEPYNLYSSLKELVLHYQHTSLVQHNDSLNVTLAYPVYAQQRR

IC50 [1] [nM]	IC50 [2] [nM]	BTK @ 0.01 μM (% Inh) [1] [% Inh]	BTK @ 0.1 μM (% Inh) [1] [% Inh]	PI3Kδ @ 0.01 μM (% Inh) [2] [% Inh]	PI3Kδ @ 0.1 μM (% Inh) [2] [% Inh]	Compound	CD69 @ 100 nM (% Inh) [3]	CD69 @ 100 nM (% Inh) ([3]; 0.1 µM)	BTK @ 1 μM (% Inh) [1] [% Inh]	PI3Kδ @ 1 μM (% Inh) [2] [% Inh]	IC50 ([3]; Mus musculus, Splenocyte) [nM]
1590	25.4	–	–	–	–	COc1ccc(-c2nn(C3CCc4ccccc4C3)c3ncnc(N)c23)cc1F (single isomer, unassigned) [Compound No. 14b, 3-(3-fluoro-4-methoxyphenyl)-1-(1,2,3,4-tetrahydronaphthalen-2-yl)-1H-pyrazolo[3,4-d]pyrimidin-4-amine]	24.20 ± 12.24 (n = 6) % Inh	–	–	–	–
–	–	−2.45	0.17	13.11	53.68	NC(=O)c1cc(-c2nn(C3CCc4ccccc4C3)c3ncnc(N)c23)cc(O)c1F (stereo not shown) [compound 131, 5-[4-amino-1-(1,2,3,4-tetrahydronaphthalen-2-yl)-1H-pyrazolo[3,4-d]pyrimidin-3-yl]-2-fluoro-3-hydroxybenzamide]	15.73 ± 14.11 (n = 3) % Inh	–	–	–	–
1210	14.8	–	–	–	–	Nc1ncnc2c1c(-c1ccc3[nH]cnc3c1)nn2C1CCc2ccccc2C1 (single isomer, unassigned) [Compound No. 19a, 3-(1H-benzo[d]imidazol-5-yl)-1-(1,2,3,4-tetrahydronaphthalen-2-yl)-1H-pyrazolo[3,4-d]pyrimidin-4-amine]	–	24.62 ± 10.79 (n = 6) % Inh	–	–	–
1270	6.4	–	–	–	–	Nc1ncnc2c1c(-c1ccc3[nH]cnc3c1)nn2C1CCc2ccccc2C1 (single isomer, unassigned) [Compound No. 19b, 3-(1H-benzo[d]imidazol-5-yl)-1-(1,2,3,4-tetrahydronaphthalen-2-yl)-1H-pyrazolo[3,4-d]pyrimidin-4-amine]	–	36.67 ± 6.35 (n = 6) % Inh	–	–	–
–	–	4.47	34.18	8.34	52.39	Nc1ncnc2c1c(-c1cc(F)c3c(c1)NCCO3)nn2C1CCc2ccccc2C1 (stereo not shown) [compound 124, 3-(8-fluoro-3,4-dihydro-2H-1,4-benzoxazin-6-yl)-1-(1,2,3,4-tetrahydronaphthalen-2-yl)-1H-pyrazolo[3,4-d]pyrimidin-4-amine]	14.44 ± 2.64 (n = 3) % Inh	–	–	–	–
–	–	90.34	6.55	1.09	25.95	Nc1ncnc2c1c(-c1cc(F)c3c(c1)NCCO3)nn2C1Cc2ccc(F)cc2C1 (stereo not shown) [compound 121, 1-(5-fluoro-2,3-dihydro-1H-inden-2-yl)-3-(8-fluoro-3,4-dihydro-2H-1,4-benzoxazin-6-yl)-1H-pyrazolo[3,4-d]pyrimidin-4-amine]	−82.03 ± 14.71 (n = 3) % Inh	–	–	–	–
–	–	6.57	18.99	8.3	19.42	Nc1ncnc2c1c(-c1cc(F)c3c(c1)NC(=O)CO3)nn2C1Cc2ccccc2C1 [compound 129, 6-[4-amino-1-(2,3-dihydro-1H-inden-2-yl)-1H-pyrazolo[3,4-d]pyrimidin-3-yl]-8-fluoro-3,4-dihydro-2H-1,4-benzoxazin-3-one]	12.5 ± 13.16 (n = 3) % Inh	–	–	–	–

The remaining lines, values behind:

Compound	IC50 [1] [nM]	IC50 [2] [nM]	BTK @ 0.01 μM (% Inh) [1] [% Inh]	BTK @ 0.1 μM (% Inh) [1] [% Inh]	PI3Kδ @ 0.01 μM (% Inh) [2] [% Inh]	PI3Kδ @ 0.1 μM (% Inh) [2] [% Inh]	CD69 @ 100 nM (% Inh) [3]	CD69 @ 100 nM (% Inh) ([3]; 0.1 µM)	BTK @ 1 μM (% Inh) [1] [% Inh]	PI3Kδ @ 1 μM (% Inh) [2] [% Inh]	IC50 ([3]; Mus musculus, Splenocyte) [nM]
COc1cc(-c2nn(C3Cc4ccccc4C3)c3ncnc(N)c23)ccc1O [Compound No. 85, 4-[4-amino-1-(2,3-dihydro-1H-inden-2-yl)-1H-pyrazolo[3,4-d]pyrimidin-3-yl]-2-methoxyphenol]	154	34.7	12.89	43.43	35.56	59.95	24.82 ± 9.20 (n = 3) % Inh	–	–	–	–
Nc1ncnc2c1c(-c1cc(O)c(Cl)cc1Cl)nn2C1Cc2ccccc2C1 [Compound No. 103, 5-[4-amino-1-(2,3-dihydro-1H-inden-2-yl)-1H-pyrazolo[3,4-d]pyrimidin-3-yl]-2,4-dichlorophenol]	162	45.7	–	47.24	–	72.71	25.06 ± 22.54 (n = 5) % Inh	–	89.82	94.52	–
C=CC(=O)N1CC(n2nc(-c3cc(O)cc(F)c3)c3c(N)ncnc32)Cc2cc(C)ccc21 (single isomer, unassigned) [31a, 1-(3-(4-amino-3-(3-fluoro-5-hydroxyphenyl)-1H-pyrazolo[3,4-d]pyrimidin-1-yl)-6-methyl-3,4-dihydroquinolin-1(2H)-yl)prop-2-en-1-one]	9.5	27.7	67.39	93.84	33.04	68.13	–	15.47 ± 13.75 (n = 8) % Inh	–	–	–
NCc1cccc(-c2nn(C3Cc4ccccc4C3)c3ncnc(N)c23)c1 [compound 133, 3-[3-(aminomethyl)phenyl]-1-(2,3-dihydro-1H-inden-2-yl)-1H-pyrazolo[3,4-d]pyrimidin-4-amine]	–	–	−0.81	−0.94	−1.05	1.17	6.8 ± 14.52 (n = 3) % Inh	–	–	–	–
Nc1ncnn2c(C3Cc4ccccc4C3)cc(-c3cc(O)c(F)c(F)c3)c12 [compound 125, 5-[4-amino-7-(2,3-dihydro-1H-inden-2-yl)pyrrolo[2,1-f][1,2,4]triazin-5-yl]-2,3-difluorophenol]	14.2	32.8	39.05	80.31	22.51	62.27	2.68 ± 2.32 (n = 3) % Inh	–	–	–	–
Nc1ncnc2c1c(-c1cc(O)cc(Cl)c1)nn2C1Cc2ccccc2C1 [Compound No. 67, 3-[4-amino-1-(2,3-dihydro-1H-inden-2-yl)-1H-pyrazolo[3,4-d]pyrimidin-3-yl]-5-chlorophenol]	142	4.1	–	43.63	–	84.5	65.11 ± 18.09 (n = 6) % Inh	–	87.64	90.92	109 ± 57
Nc1ncnc2c1c(-c1ccc3[nH]c(O)nc3c1)nn2C1Cc2ccccc2C1 [compound 108, 5-[4-amino-1-(2,3-dihydro-1H-inden-2-yl)-1H-pyrazolo[3,4-d]pyrimidin-3-yl]-1H-1,3-benzodiazol-2-ol]	–	–	1.76	6.6	9.28	21.98	11.99 ± 7.58 (n = 3) % Inh	–	–	–	–
CNc1cc(-c2cn(C3Cc4ccccc4C3)c3ncnc(N)c23)cc(F)c1F [compound 113, 5-[3,4-difluoro-5-(methylamino)phenyl]-7-(2,3-dihydro-1H-inden-2-yl)-7H-pyrrolo[2,3-d]pyrimidin-4-amine]	–	–	8.12	38.11	20.77	39.52	11.61 ± 11.81 (n = 3) % Inh	–	–	–	–
Nc1ncnc2c1c(-c1cc(O)c(Cl)c(Cl)c1)nn2C1Cc2ccccc2C1 [compound 118, 5-[4-amino-1-(2,3-dihydro-1H-inden-2-yl)-1H-pyrazolo[3,4-d]pyrimidin-3-yl]-2,3-dichlorophenol]	–	–	19.01	65.15	79.16	95.72	44.32 ± 10.35 (n = 3) % Inh	–	–	–	–
